Measured values: PubChem BioAssay (NCI)
In brackets after ≈: the same amount, converted by molar mass.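 Grown in 96-well plates, cells were treated for 48 hours with each compound at five concentrations. Insufficient inhibition: endpoint recorded as highest concentration tested. The concentration for 50% growth inhibition is given as GI50. The concentration for full growth arrest is given as TGI.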

Tests used:
Experiment in all cases: inhibition of tumour cell growth, NCI panel, 48 h
[1] = tested on: A549 NSCLC
[2] = tested on: CAKI-1 renal
[3] = tested on: HCT-15 colon
[4] = tested on: SF-268 CNS
[5] = tested on: SK-MEL-5 melanoma
[6] = tested on: UACC-62 melanoma
[7] = tested on: IGROV1 ovarian
[8] = tested on: MALME-3M melanoma
[9] = tested on: RXF 393 renal
[10] = tested on: NCI-H522 lung

Structure (SMILES)	TGI [1]	TGI [2]	TGI [3]	TGI [4]	TGI [5]	TGI [6]	GI50 [1] [µg/mL]	GI50 [2] [µg/mL]	GI50 [3] [µg/mL]	GI50 [7] [µg/mL]	TGI [7]	GI50 [8] [µg/mL]	TGI [8]	GI50 [9] [µg/mL]	TGI [9]	GI50 [4] [µg/mL]	GI50 [5] [µg/mL]	GI50 [6] [µg/mL]	TGI [10] [µM]
OC1(c2ccc(-c3ccccc3)cc2)c2ccccc2C2=NCCN21 (stereo not given)	> 100 µM	> 100 µM	> 100 µM	> 100 µM	43.6 µM	53.1 µM													
CC(=O)c1c(C)nc(SSc2nc(C)c(C(C)=O)c(-c3ccc(Cl)cc3)c2C#N)c(C#N)c1-c1ccc(Cl)cc1	> 150 µg/mL	> 150 µg/mL	> 150 µg/mL	> 150 µg/mL	> 150 µg/mL	> 150 µg/mL	73 (≈ 121 µM)	62.7 (≈ 104 µM)	> 150	88.1 (≈ 146 µM)	> 150 µg/mL	50.9 (≈ 84.3 µM)	> 150 µg/mL	22.5 (≈ 37.2 µM)	78.4 µg/mL	102 (≈ 169 µM)	61.7 (≈ 102 µM)	29 (≈ 48 µM)	
CN(C(=O)Cc1ccccc1)n1cnn(CC(=O)OC(C)(C)C)c1=S	> 10 µM	> 10 µM	> 10 µM	> 10 µM	> 10 µM	> 10 µM					> 10 µM		> 10 µM						> 10
CCC1(N=[N+]=[N-])C(=O)c2ccccc2N(C)C1=O (stereo not given)	> 100 µM	> 100 µM	> 100 µM	> 100 µM	> 100 µM	> 100 µM					> 100 µM		> 100 µM						> 100
Cc1ccc(SC2C(=O)C3CC(OCc4ccccc4)C2(C)C3(C)C)cc1 (stereo not given)	> 100 µM		> 100 µM	> 100 µM	> 100 µM	> 100 µM					> 100 µM		> 100 µM		> 100 µM				
COC(=O)C1Cc2cc3c(cc2C1=O)CCCC3 (stereo not given)	> 100 µM	> 100 µM	> 100 µM	> 100 µM	> 100 µM	> 100 µM					> 100 µM		> 100 µM						> 100
C#C/C=C\CCCC/C=C\C#CC#CCCCC#CC#C[C@H](COS(=O)(=O)O)OS(=O)(=O)O	> 100 µM	> 100 µM	> 100 µM	> 100 µM	> 100 µM	> 100 µM					> 100 µM								> 100
CC[C@@]1(O)C(=O)OCc2c1cc1n(c2=O)Cc2c-1nc1ccccc1c2/C=N\NC(=O)C1CCCN1 (stereo not given in full)	> 100 µM	> 23.5 µM	> 61.9 µM	3.96 µM	2.25 µM	0.653 µM					> 96.6 µM		> 89.4 µM		2.1 µM				
Cc1cnc2sn(-c3ccc([N+](=O)[O-])cc3)c(=O)c2c1	> 100 µM		> 100 µM	> 100 µM	> 100 µM	> 100 µM					> 100 µM		> 100 µM						> 100
O=C(OC1C2OC(=O)c3cc(O)c(O)c(O)c3Oc3cc4c(c(O)c3O)-c3c(cc(O)c(O)c3O)C(=O)OCC3OC(O)C(OC(=O)c5cc(O)c(O)c(O)c5Oc5cc6c(c(O)c5O)-c5c(cc(O)c(O)c5O)C(=O)OC1C(COC6=O)OC2O)C(OC(=O)c1cc(O)c(O)c(O)c1)C3OC4=O)c1cc(O)c(O)c(O)c1 (stereo not given)	39.7 µM	> 100 µM		> 100 µM	> 100 µM	68.5 µM					> 100 µM		> 100 µM		52.5 µM				
CO/N=C(/C)c1cccc(Nc2nc3ccccc3c3[nH]c4ccccc4c23)c1	24.7 µM	24.2 µM	23.6 µM	25.7 µM	18.2 µM	19.3 µM					30.6 µM								9.61
Cc1c2c3ccccc3nc-2n(C)c2ccccc12	9.19 µM		11.3 µM	19.1 µM	2.2 µM	3.67 µM					12.2 µM		5.98 µM		6.01 µM				
CCP(=O)(CC)C(Cl)Cl	> 100 µM	> 100 µM	> 100 µM		> 100 µM						> 100 µM								> 100
COc1ccc2nc(-c3ccccc3)cc(OCC(=O)O)c2c1	> 100 µM	> 100 µM	> 100 µM	> 100 µM	> 100 µM	> 100 µM					> 100 µM		> 100 µM						> 100
c1ccc2c(c1)c1c(n2CCOCCN2CCCC2)CCCC1	> 100 µM	96.9 µM	31.2 µM	> 100 µM	30.3 µM	33.7 µM					56.4 µM		31.3 µM						
CCOc1ccc2[nH]c3c(C)c4ccncc4c(C)c3c2c1	2.88 µM	3.06 µM	1.61 µM	2.71 µM	2.86 µM						2.42 µM		2.83 µM						2.77
CCN1CCC(O)(c2ccc(Oc3ccc(F)cc3)cc2)C(C(=O)c2ccc(Oc3ccc(F)cc3)cc2)C1 (stereo not given)	29.5 µM	25.7 µM	23.7 µM	34.9 µM		28 µM					24.1 µM		31 µM		25.8 µM				
O=C1CC2CC3OC3[C@H]3c4cc5c(cc4C(=O)N1C23)OCO5 (stereo not given in full)	> 100 µM	> 100 µM	> 100 µM	> 100 µM		> 100 µM					> 100 µM		> 100 µM						> 100
